# Residues, ends and D or L forms follow the SMILES beside them. *: point of attachment. Palmitoyl = CCCCCCCCCCCCCCCC(=O)*
# Experiments:
# [1] = Solubility and filterability of the lipopeptides; assay type: physicochemical
# Experimental: Le lipopeptide n° 3 est soluble dans l'acide acétique à 80%. Il peut être stérilisable par filtration sur un microfiltre de 0,22 µm. Il peut être en outre dissous dans une solution DMSO/eau 10% V/V. La mesure de la masse par spectrométrie PDMS-TOF confirme la présence du produit attendu. Le produit s'avère purifiable après injection d'une solution concentrée dans le DMSO, sur colonne Vydac C4, à 60°C, en utilisant un gradient d'acétonitrile, en présence du contre-ion TFA. Le produit est caractérisable par HPLC selon plusieurs méthodes résolutives conventionnelles, sur colonnes Vydac C4, Zorbax C3, Zorbax CN, Zorbax C1, à 60°C, à l'aide de gradients d'acétonitrile en présence d'un contre-ion TFA, ou en utilisant un modificateur organique, tel que l'isopropanol ou le butanol en isocratique.
# Le trifluoroacétate du lipopeptide n°3 est soluble dans le DMSO (20-25 mg/mL), et reste soluble après dilution par de l'eau (DMSO 10%). L'échange du contre-ion trifluoroacétate pour un contre-ion acétate peut être réalisé par RP-HPLC sur une colonne C4: le produit dissous dans le DMSO à 80% est injecté sur la colonne équilibrée par le solvant A (acide acétique à 5% dans l'eau). Après élimination des produits non retenus (contre-ions TFA, sels), le produit est élué par l'aide d'un gradient du solvant A vers le solvant B (acétonitrile 80% - acide acétique à 5% - eau 15%). […]
# [2] = system: CTL spécifiques dans les PBMC de patients séropositifs pour HIV; assay: ELISPOT IFN-γ test on human PBMC of HIV-seropositive donors (antigenicity); assay type: cell-based, homme; details: PBMC of patient HLA-B7 Z118; figure 6c
# Experimental: Des donneurs séropositifs pour HIV ont été sélectionnés pour leur expression en molecules HLA de classe I selon des données bien connues de l'homme du métier en matière de restriction vis-à-vis des peptides et lipopeptides.
# Des microplaques de nitrocellulose (Millipore, Bedford, MA) ont été incubées pendant la nuit à 4°C avec 1 µg/ml d'un anticorps de capture anti-Interféron-γ humain dilué dans un tampon carbonate/bicarbonate à pH 9,6 (100 µl/puits). Après cinq lavages, les plaques ont été saturées pendant 2 heures à 37°C avec 200 µl puis lavées. Pour les cultures de cellules humaines, le milieu complet était composé de RPMI 1640, 10% de sérum albumine bovine, 2mM glutamine, d'antibiotiques et de β2-mercaptoéthanol (5 x 10^-5M). Pour le test avec le peptide, des PBMC de patients ont été ajoutés directement dans les microplaques de nitrocellulose (2 x 10^5 cellules/puits) et incubés pendant 24 heures à 37°C en présence de […] du peptide. Pour le test des lipopeptides, les PBMC ont été incubés pendant la nuit à 37 °C avec les lipopeptides, puis ont été lavés et irradiés (3000 rads). Ces cellules ont été utilisées comme cellules stimulatrices dans une co-culture (2 x 10^5 cellules par puits) avec des PBMC syngéniques ( rapport 1/1) dans des plaques de nitrocellulose pendant 24 heures à 37°C. […]
compound,measurement,setting,value
CCCCCCCCCCCCCCCC(=O)NCCCC[C@H](N)C(=O)N[C@@H](CO)C(=O)N[C@@H](CO)C(=O)N[C@@H](CCC(N)=O)C(=O)N[C@@H](Cc1ccc(O)cc1)C(=O)N[C@H](C(=O)N[C@@H](CCCCN)C(=O)N[C@@H](C)C(=O)N[C@@H](CC(N)=O)C(=O)N[C@@H](CO)C(=O)N[C@@H](CCCCN)C(=O)N[C@@H](Cc1ccccc1)C(=O)N[C@H](C(=O)NCC(=O)N[C@H](C(=O)N[C@H](C(=O)N[C@@H](CCC(=O)O)C(=O)N[C@@H](CCCNC(=N)N)C(=O)NCC(=O)N[C@@H](CCCNC(=N)N)C(=O)N[C@@H](C)C(=O)N[C@@H](C)C(=O)NCC(=O)N[C@H](C(=O)NCC(=O)N[C@H](C(=O)N[C@@H](CC(C)C)C(=O)N[C@H](C(=O)N[C@H](C(=O)O)C(C)C)[C@@H](C)O)[C@@H](C)CC)[C@@H](C)CC)[C@@H](C)O)[C@@H](C)CC)[C@@H](C)CC)[C@@H](C)CC [lipopeptide n°4] (H-K(Palmitoyl)SSQYIKANSKFIGITERGRAAGIGILTV-OH),solubilité en milieu aqueux,[1]; aqueous medium,n'est soluble en milieu aqueux qu'en présence de DMSO
"NEF 68-76: épitope potentiel de HLA-B7 (FPVTPQVPL; UniProt P04601 68-76, looked up, fragment)",antigénicité (ELISPOT Interféron-γ),[2],induit efficacement une réponse CTL spécifique
CCCCCCCCCCCCCCCC(=O)NCCCC[C@H](NC(=O)CCCCCCCCCCCCCCC)C(=O)N[C@@H](CO)C(=O)N[C@@H](CO)C(=O)N[C@@H](CCC(N)=O)C(=O)N[C@@H](Cc1ccc(O)cc1)C(=O)N[C@H](C(=O)N[C@@H](CCCCN)C(=O)N[C@@H](C)C(=O)N[C@@H](CC(N)=O)C(=O)N[C@@H](CO)C(=O)N[C@@H](CCCCN)C(=O)N[C@@H](Cc1ccccc1)C(=O)N[C@H](C(=O)NCC(=O)N[C@H](C(=O)N[C@H](C(=O)N[C@@H](CCC(=O)O)C(=O)N[C@@H](CCCNC(=N)N)C(=O)NCC(=O)N[C@@H](CCCNC(=N)N)C(=O)N[C@@H](C)C(=O)N[C@@H](C)C(=O)NCC(=O)N[C@H](C(=O)NCC(=O)N[C@H](C(=O)N[C@@H](CC(C)C)C(=O)N[C@H](C(=O)N[C@H](C(=O)O)C(C)C)[C@@H](C)O)[C@@H](C)CC)[C@@H](C)CC)[C@@H](C)O)[C@@H](C)CC)[C@@H](C)CC)[C@@H](C)CC [lipopeptide n°2] (Palmitoyl-K(Palmitoyl)SSQYIKANSKFIGITERGRAAGIGILTV-OH),solubilité dans l'eau,[1]; water,comportement voisin du lipopeptide n°1
CCCCCCCCCCCCCCCC(=O)NCCCC[C@H](NC(=O)CCCCCCCCCCCCCCC)C(=O)NCC(=O)N[C@@H](CCCNC(=N)N)C(=O)N[C@@H](CCC(N)=O)C(=O)N[C@@H](Cc1ccc(O)cc1)C(=O)N[C@H](C(=O)N[C@@H](CCCCN)C(=O)N[C@@H](C)C(=O)N[C@@H](CC(N)=O)C(=O)N[C@@H](CO)C(=O)N[C@@H](CCCCN)C(=O)N[C@@H](Cc1ccccc1)C(=O)N[C@H](C(=O)NCC(=O)N[C@H](C(=O)N[C@H](C(=O)N[C@@H](CCC(=O)O)C(=O)N[C@@H](CCCNC(=N)N)C(=O)NCC(=O)N[C@@H](CCCNC(=N)N)C(=O)N[C@@H](C)C(=O)N[C@@H](C)C(=O)NCC(=O)N[C@H](C(=O)NCC(=O)N[C@H](C(=O)N[C@@H](CC(C)C)C(=O)N[C@H](C(=O)N[C@H](C(=O)O)C(C)C)[C@@H](C)O)[C@@H](C)CC)[C@@H](C)CC)[C@@H](C)O)[C@@H](C)CC)[C@@H](C)CC)[C@@H](C)CC [lipopeptide n° 3] (Palmitoyl-K(Palmitoyl)GRQYIKANSKFIGITERGRAAGIGILTV-OH),solubilité dans un mélange DMSO/eau 10% V/V,[1],dissous
same,solubilité dans l'acide acétique à 80%,[1]; acide acétique à 80%,soluble
same,solubilité,"[1]; acétate salt, compared with the trifluoroacétate",comparable à celle du trifluoroacétate
same,stérilisation par filtration,"[1]; microfiltre de 0,22 µm",stérilisable
same,solubilité dans le DMSO,"[1]; trifluoroacétate salt, DMSO",20 to 25 mg/mL
same,solubilité après dilution par de l'eau,"[1]; trifluoroacétate salt, DMSO solution diluted with water (DMSO 10%)",reste soluble
CCCCCCCCCCCCCCCC(=O)NCCCC[C@H](NC(=O)CCCCCCCCCCCCCCC)C(=O)N[C@@H](CO)C(=O)N[C@@H](CO)C(=O)N[C@@H](CCC(N)=O)C(=O)N[C@@H](Cc1ccc(O)cc1)C(=O)N[C@H](C(=O)N[C@@H](CCCCN)C(=O)N[C@@H](C)C(=O)N[C@@H](CC(N)=O)C(=O)N[C@@H](CO)C(=O)N[C@@H](CCCCN)C(=O)N[C@@H](Cc1ccccc1)C(=O)N[C@H](C(=O)NCC(=O)N[C@H](C(=O)N[C@H](C(=O)N[C@@H](CCC(=O)O)C(=O)N[C@@H](C)C(=O)N[C@@H](C)C(=O)N[C@@H](C)C(=O)N[C@@H](C)C(=O)N[C@@H](C)C(=O)NCC(=O)N[C@H](C(=O)NCC(=O)N[C@H](C(=O)N[C@@H](CC(C)C)C(=O)N[C@H](C(=O)N[C@H](C(=O)O)C(C)C)[C@@H](C)O)[C@@H](C)CC)[C@@H](C)CC)[C@@H](C)O)[C@@H](C)CC)[C@@H](C)CC)[C@@H](C)CC [lipopeptide n° 1] (Palmitoyl-K(Palmitoyl)SSQYIKANSKFIGITEAAAAAGIGILTV-OH),solubilité dans un mélange DMSO/eau 10% V/V,[1],pratiquement insoluble
same,solubilité dans l'eau,[1]; water,pratiquement insoluble
same,solubilité dans l'eau après lyophilisation,"[1]; water, after lyophilisation",totalement insoluble
